According to patent US20110190253A1, “METHOD FOR TREATING TUBERCULOSIS” (priority 2008, published 2011):

Tested on: extensively drug-resistant (XDR) clinical strains of M. tuberculosis
Assay: microbe, parasite or virus in culture
Type: cell-based
Conditions: for variability of MIC values among strains: thirteen XDR clinical isolates, clavulanate 2.5 μg ml^−1, data not shown

SMILES	variability of MIC values among strains	MIC (Mycobacterium tuberculosis, read-out: MIC value) [µg/mL]
CC1(C)S[C@@H]2[C@H](NC(=O)[C@H](N)c3ccccc3)C(=O)N2[C@H]1C(=O)O [ampicillin]	substantial variability	–
CC(=O)OCC1=C(C(=O)O)N2C(=O)[C@@H](NC(=O)Cc3cccs3)[C@H]2SC1 [cephalothin]	substantial variability	–
C[C@@H](O)[C@H]1C(=O)N2C(C(=O)O)=C(S[C@@H]3CN[C@H](C(=O)N(C)C)C3)[C@H](C)[C@H]12 [meropenem]	–	≤ 1
